Source: US20120129811A1, “TRICYCLIC INHIBITORS OF PRO-MATRIX METALLOPROTEINASE ACTIVATION” (priority 2010, published 2012)

Experiments:
[1] = target: T1, MMP9 (Rattus norvegicus, UniProt P50282); test: Western blot of pro and active MMP9 in ankles of rats with SCW-induced arthritis; format: in vivo; details: Day 26, four hours after AM dose
T1 construct: Pro and active MMP9 were abundantly present in ankles of SCW-induced vehicle-treated rats; from tissue; host or cells: tibia-tarsus joints (ankles) of female Lewis rats
Procedure: Hind-limbs were skinned, severed just above the tibia-tarsus joint and below the metatarsals, and the tibia-tarsus joints (ankles) were weighed, snap frozen and pulverized on dry ice using a hammer and anvil. The pulverized tissue was suspended in 3 volumes (w:v) of ice-cold homogenization buffer containing 50 mM Tris pH 7.5, 150 mM NaCl, 5 mM EDTA, 1% Triton X100, 0.05% Brij 30, 10% dimethylsulfoxide and Complete EDTA-free Protease Inhibitor Cocktail (Roche Diagnostics). The suspended tissue was homogenized sequentially with a Kinematica AG Polytron and a Dounce homogenizer. Homogenates were centrifuged at 16,000×g for 10 min at 4° C. and the soluble fractions were saved. Dimethylsulfoxide was removed from a portion of each soluble fraction using PD MiniTrap™ G-25 desalting columns (GE Healthcare). Homogenates (0.25 mL), free of DMSO, were diluted with an equal volume of binding buffer (i.e., homogenization buffer without dimethylsufoxide) and adjusted to contain 50 μL of a 50% slurry of gelatin-conjugated sepharose. Following 2 hours of rotation at 4° C. the beads were washed twice in binding buffer and eluted in 100 μL 2×-reducing Laemmli buffer with heating to 95° C. for 5 minutes. […]

[2] = target: T2, MMP9 mediated gelatinase activity (Rattus norvegicus, UniProt P50282); test: In situ zymography of gelatinase activity in livers of SCW-induced rats dosed with Compound-α; format: in vivo; details: for Intensity, Rat 1 / Intensity, Rat 2 / Intensity, Rat 3 / Intensity, Mean: SCW, liver; for Intensity, Mean: n=3
T2 construct: from tissue; host or cells: frozen liver sections of female Lewis rats
Source text: In situ zymography provides an alternative approach to assess active MMP9 in tissues (Frederiks). Tissue sections are overlain with fluorescene-conjugated gelatin wherein the conjugation is sufficiently dense to cause the fluorescene to be dye-quenched (DQ). Proteolytic degradation of the DQ-gelatin releases the fluorescene from the quenching effect giving rise to bright green fluorescence at the site of degradation. Because in situ zymography requires the use of frozen sections, calcified tissues are problematic. However, an additional feature of the SCW arthritis model is the development of hepatic granulomatous disease (J Immunol; 1986; 137:2199-2209), and MMP9 reportedly plays a role in macrophage recruitment in the granulomas response to mycobacteria (Infect Immun; 2006; 74:6135-6144). Consequently, granulomatous livers from SCW-treated rats were assessed for active MMP9 by in situ zymography.
As described above, Female Lewis (LEW/N) rats, 5-6 weeks of age (80-100 g) were injected (i.p.) with saline or SCW PG-PS. On day 28, when the granulomatous response was well established, animals were sacrificed and livers were frozen in OCT cryo-sectioning medium and 10 μm sections were cut on a Cryome HM 500 M cryotome and mounted on glass microscope slides. Sections were air dried briefly. MMP9 was confirmed as the source of the gelatinase activity in the liver by treating liver sections with monoclonal antibodies directed against the active site of the two major gelatinases MMP9 and MMP2. Liver sections overlain with 50 μL of 100 μg/mL neutralizing mouse monoclonal antibodies directed against MMP9 (Calbiochem, clone 6-6B), or MMP2 (Millipore, clone CA-4001), or with PBS for 1 hr at room temperature. Tissues were rinsed once with PBS, blotted, and briefly air dried and then overlain with DQ-gelatin (Invitrogen) dissolved to 1 mg/mL in deionized water and then diluted 1:10 in 1% wt/vol low gelling point agarose type VII (Sigma) in PBS. The sections were covered with coverslips, incubated in the dark at room temperature for 20 min, and imaged on an Olympus IX80 inverted microscope fitted with fluorescence optics, using SlideBook™ imaging software (Intelligent Imaging Innovations, Inc., Philadelphia, Pa.; version 5.0). Fluorescence intensity was determined (Table 8). When compared to a saline-treated rat, gelatinase activity was abundantly expressed in granulomatous liver sections obtained from a rat with SCW arthritis.
Next, liver in situ zymography was used to assess the relative presence of active MMP9 in rats dosed with vehicle vs. Compound-α. Female Lewis (LEW/N) rats, 5-6 weeks of age (80-100 g) were injected (i.p.) with saline or SCW PG-PS. Commencing on day 25, randomized groups of rats (n=3 rats/group) received vehicle or 20 or 50 mg/kg Compound-α BID by oral gavage. Vehicle consisted of an aqueous mixture containing 2% (v:v) N-methylpyrrolidone, 5% (v:v) glycerine, and 20% (w:v) captisol. Treatment continued daily through the morning of day 28. Four hrs after the AM dose on day 28, rats were sacrificed and livers assessed for active MMP9 by in situ zymography (Table 9). Gelatinase activity was increased markedly in SCW-induced rats, but activity was reduced by approximately 80% in animals treated with 50 mg/kg Compound-α.

[3] = 20 mg/kg BID oral gavage Day 25-28
[4] = 50 mg/kg BID oral gavage Day 25-28

T2 sequence (P50282 20-708): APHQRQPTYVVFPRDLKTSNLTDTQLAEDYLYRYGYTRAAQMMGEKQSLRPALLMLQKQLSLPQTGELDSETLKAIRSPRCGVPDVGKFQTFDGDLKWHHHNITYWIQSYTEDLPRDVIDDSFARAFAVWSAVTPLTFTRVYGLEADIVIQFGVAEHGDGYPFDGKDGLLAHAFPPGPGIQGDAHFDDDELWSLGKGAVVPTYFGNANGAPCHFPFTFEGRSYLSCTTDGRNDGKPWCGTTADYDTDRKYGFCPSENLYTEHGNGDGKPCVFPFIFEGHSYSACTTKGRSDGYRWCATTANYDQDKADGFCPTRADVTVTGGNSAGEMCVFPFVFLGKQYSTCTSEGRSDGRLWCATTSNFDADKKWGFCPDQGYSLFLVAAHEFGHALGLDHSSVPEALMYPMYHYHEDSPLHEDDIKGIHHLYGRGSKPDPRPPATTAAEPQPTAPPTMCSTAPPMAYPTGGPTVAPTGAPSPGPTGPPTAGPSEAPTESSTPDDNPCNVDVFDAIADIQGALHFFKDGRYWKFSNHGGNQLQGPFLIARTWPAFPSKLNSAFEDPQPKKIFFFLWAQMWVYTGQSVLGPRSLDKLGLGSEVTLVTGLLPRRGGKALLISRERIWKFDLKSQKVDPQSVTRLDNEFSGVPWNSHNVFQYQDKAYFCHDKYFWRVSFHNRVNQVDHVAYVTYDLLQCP
T1 sequence (P50282 108-708): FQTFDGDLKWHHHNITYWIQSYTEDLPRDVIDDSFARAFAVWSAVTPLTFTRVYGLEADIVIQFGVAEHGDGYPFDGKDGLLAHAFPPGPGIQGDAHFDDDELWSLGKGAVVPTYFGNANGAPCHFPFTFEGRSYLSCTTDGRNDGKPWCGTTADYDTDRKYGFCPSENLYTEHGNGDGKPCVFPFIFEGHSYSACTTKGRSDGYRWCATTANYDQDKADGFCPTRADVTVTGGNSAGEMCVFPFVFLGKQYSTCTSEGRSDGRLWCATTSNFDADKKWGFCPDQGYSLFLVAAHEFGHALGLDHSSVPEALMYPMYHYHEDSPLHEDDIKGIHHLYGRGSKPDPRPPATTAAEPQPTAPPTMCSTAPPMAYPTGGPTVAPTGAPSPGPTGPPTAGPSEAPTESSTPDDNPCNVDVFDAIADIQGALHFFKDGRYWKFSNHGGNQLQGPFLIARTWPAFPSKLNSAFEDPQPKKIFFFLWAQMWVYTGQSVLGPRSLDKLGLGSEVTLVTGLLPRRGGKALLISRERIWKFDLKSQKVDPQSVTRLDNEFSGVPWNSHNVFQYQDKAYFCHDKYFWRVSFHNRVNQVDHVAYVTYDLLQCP

SMILES: Cc1nc(C)c(-c2csc(Nc3cc(S(N)(=O)=O)ccc3OC(C)C)n2)s1 [Compound α, 3-(2′,4′-Dimethyl-[4,5′]bithiazolyl-2-ylamino)-4-isopropoxy-benzenesulfonamide.HBr]
- effect on abundance of proMMP9 in ankles ([1]; mAb-L51/82): did not reduce the abundance of proMMP-9
- effect on abundance of proMMP9 in ankles ([1]; mAb-L51/82, listed as Compound-α): did not reduce the abundance of proMMP9
- reduction of gelatinase activity in liver ([2]; 50 mg/kg, SCW-induced rats, day 28): approximately 80%
- Intensity, Rat 1 [2, 3]: 43.0 RLU × 10^6
- Intensity, Rat 2 [2, 3]: 69.0 RLU × 10^6
- Intensity, Rat 3 [2, 3]: 53.7 RLU × 10^6
- Intensity, Mean [2, 3]: 55.2 RLU × 10^6
- Intensity, Rat 1 [2, 4]: 3.2 RLU × 10^6
- Intensity, Rat 2 [2, 4]: 25.6 RLU × 10^6
- Intensity, Rat 3 [2, 4]: 4.5 RLU × 10^6
- Intensity, Mean [2, 4]: 11.1 RLU × 10^6
